From patent US9221746B2, “Homo- and hetero-polyamino-acid derivatives of fullerene C60, method for producing same, and pharmaceutical compositions based on said derivatives” (priority 2011, dated 2015)
Like-named read-outs stand apart in the source and are kept apart here. Marks after values point to notes of the source that are not given here.

Columns and labels:
L1210 leukemia = format: in vivo, mice; conditions: for ILT, %: increase in lifetime compared to the control; for Average body weight gain, M ± m / Percent inhibition relative to control / Average weight gain, M ± m: ascite development
Method: (§1) These studies were carried out at the Institute for Toxicology, St. Petersburg, 2006, according to “Guidelines for the Study of Antitumor Activity of Pharmacological Agents” (“Manual on Experimental (Preclinical) Study of New Pharmacological Agents,” Ministry of Public Health of the Russian Federation, Remedium, Moscow, 2000, pp. 319-325).
(§2) The L1210 leukemia, breast adenocarcinoma Ca-755, and Lewis carcinoma (3LL) tumor cell strain were purchased from the Petrov Research Institute for Oncology, the Ministry of Public Health of the Russian Federation (St. Petersburg).
DBA/2 line mice with transplanted L1210 leukemia cells. Mouse ages: 6 to 8 weeks; body weights: 19 to 25 g.
(§3) The antitumor effect was ascertained through the following parameters: • ascite accumulation as animal body weight gain; • the lifetime of animals; and • tumor growth. The larger dimension of the tumor (length) and the smaller dimension normal thereto (width) were measured. The tumor volume was calculated, and the inhibition of tumor growth was calculated by a formula. The ascertainment criterion was the day when each individual tumor reached a volume of 500 mm^3.
During the experiment, the animals were weighed daily with the goal of evaluating ascite accumulation and studying the agents compared on this process.

[1] = system: A/IIV-Moscow/01/2009 (H1N1)swl influenza virus; assay: Reduction of influenza virus reproduction in MDCK cell culture (ELISA); format: cell-based; conditions: for Percent reduction of influenza virus reproduction in MDCK cell culture relative to control, average values: average of the three experiments
Method: The agent was diluted with DMSO (5 mg substance+0.5 mL DMSO), followed by addition of 4.5 mL MEM cell cultural medium to obtain in this way a stock solution with a concentration of 1.0 […].
The antiviral activity was ascertained from the reduction of influenza virus reproduction in the MDCK cell culture, as recognized by ELISA.
For this purpose, MDCK cells were grown on 96-well plates to obtain a complete monolayer, washed from the growth medium, and added with substances in a twofold concentration in 100 mcL MEM medium. Infection with the virus in a working dose ranging from 100 to 1000 TCD50 was carried out in two protocols: 2 hours following the insertion of the substances and simultaneously. The plates were incubated in a thermostat filled with CO2 for 24 hours at 37° C. Following the incubation, the medium was removed and cells were fixed by 80% acetone in PBS for 15 minutes and then well dried, and ELISA was performed by consecutive adsorption of specific reagents, namely, monoclonal antibodies, conjugate, and substrate (orthophenylenediamine). The degree of reaction was monitored by measuring optical density at 492 nm on a Biokom spectrophotometer. Each virus dilution was studied in three replicas, for which an average optical density (OD) value was calculated. Percent inhibition was determined as the quotient of the difference between the experimental OD and the OD of the cell control, divided by the difference between the OD of the virus control and the OD of the cell control, multiplied by 100%. The data gained in this way were used to determine the minimal concentration of the agent causing the 50.0% inhibition of viral reproduction (MIC50).
The inhibition of A(H1N1) influenza virus replication was ascertained in three experiments with different multiplicities of infection.

[2] = system: breast adenocarcinoma Ca-755; format: in vivo, mice; conditions: for ILT, %: increase in lifetime compared to the control
Method: as §1, §2
C 57 BL/6J line male mice with transplanted Ca-755 cells. Mouse ages: 6 to 8 weeks; body weights: 19 to 25 g.
as §3

Fullerene Poly(Aminocaproic Acid) of Formula C60(H3){NH(CH2)5COO—}3{NH3^+(CH2)5COOH}3 [Agent No. 1]
ALT in days, M ± m (L1210 leukemia; 100 mg/kg): 10.7 ± 37 days | ILT, % (L1210 leukemia; 100 mg/kg): 78.33% | ALT in days, M ± m (L1210 leukemia; 100 mg/kg, listed as agent): 10.7 ± 0.37 days | average lifetime (L1210 leukemia; 200 mg/kg): 10.60 ± 0.37 days | percent increase in lifetime compared to the control (L1210 leukemia; 200 mg/kg): 76.67% | ALT in days, M ± m (L1210 leukemia; 250 mg/kg): 10.60 ± 37 days | factor by which average body weight gain is lower at 250 mg/kg than at 100 mg/kg (L1210 leukemia; 250 mg/kg versus 100 mg/kg): 1.5 | ILT, % (L1210 leukemia; 250 mg/kg): 76.67% | Average body weight gain, M ± m (L1210 leukemia; 100 mg/kg, day 1): 0.3 ± 0.2 | Average body weight gain, M ± m (L1210 leukemia; 100 mg/kg, day 2): 0.8 ± 0.4 | Average body weight gain, M ± m (L1210 leukemia; 100 mg/kg, day 3): 2.5 ± 0.5 | Percent inhibition relative to control (L1210 leukemia; 100 mg/kg, day 3): 50.0%* | Average body weight gain, M ± m (L1210 leukemia; 100 mg/kg, day 4): 4.2 ± 1.0 | Percent inhibition relative to control (L1210 leukemia; 100 mg/kg, day 4): 63.2%* | Average body weight gain, M ± m (L1210 leukemia; 100 mg/kg, day 5): 8.4 ± 1.2 | Percent inhibition relative to control (L1210 leukemia; 100 mg/kg, day 5): 48.5%* | Average body weight gain, M ± m (L1210 leukemia; 100 mg/kg, day 6): 12.1 ± 2.1 | Percent inhibition relative to control (L1210 leukemia; 100 mg/kg, day 6): 42.9%* | Average body weight gain, M ± m (L1210 leukemia; 100 mg/kg, day 7): 14.2 ± 2.2 | Percent inhibition relative to control (L1210 leukemia; 100 mg/kg, day 7): 46.0%* | Average weight gain, M ± m (L1210 leukemia; 250 mg/kg, day 1): 0.3 ± 0.1 | Average weight gain, M ± m (L1210 leukemia; 250 mg/kg, day 2): 0.5 ± 0.3 | Average weight gain, M ± m (L1210 leukemia; 250 mg/kg, day 3): 1.1 ± 0.4 | Percent inhibition relative to control (L1210 leukemia; 250 mg/kg, day 3): 78.0%* | Average weight gain, M ± m (L1210 leukemia; 250 mg/kg, day 4): 2.8 ± 0.9 | Percent inhibition relative to control (L1210 leukemia; 250 mg/kg, day 4): 75.4%* | Average weight gain, M ± m (L1210 leukemia; 250 mg/kg, day 5): 4.7 ± 1.2 | Percent inhibition relative to control (L1210 leukemia; 250 mg/kg, day 5): 71.2%* | Average weight gain, M ± m (L1210 leukemia; 250 mg/kg, day 6): 8.4 ± 1.6 | Percent inhibition relative to control (L1210 leukemia; 250 mg/kg, day 6): 60.4%* | Average weight gain, M ± m (L1210 leukemia; 250 mg/kg, day 7): 10.0 ± 1.3 | Percent inhibition relative to control (L1210 leukemia; 250 mg/kg, day 7): 62.0%* | intoxication signatures (L1210 leukemia; mouse, in vivo): No intoxication signatures were detected | Percent (%) reduction of influenza virus reproduction in MDCK cell culture relative to control ([1]; 6.25 mcg/mL, 2 h prior to infection, 1st value of cell (experiments with different multiplicities of infection)): 27.0% | Percent (%) reduction of influenza virus reproduction in MDCK cell culture relative to control ([1]; 6.25 mcg/mL, 2 h prior to infection, 2nd value of cell): 28.0% | Percent (%) reduction of influenza virus reproduction in MDCK cell culture relative to control ([1]; 6.25 mcg/mL, 2 h prior to infection, 3rd value of cell): 0% | Percent reduction of influenza virus reproduction in MDCK cell culture relative to control, average values ([1]; 6.25 mcg/mL, 2 h prior to infection): 18.0% | Percent (%) reduction of influenza virus reproduction in MDCK cell culture relative to control ([1]; 6.25 mcg/mL, simultaneously with infection, 1st value of cell): 18.0% | Percent (%) reduction of influenza virus reproduction in MDCK cell culture relative to control ([1]; 6.25 mcg/mL, simultaneously with infection, 2nd value of cell): 0% | Percent (%) reduction of influenza virus reproduction in MDCK cell culture relative to control ([1]; 6.25 mcg/mL, simultaneously with infection, 3rd value of cell): 0% | Percent reduction of influenza virus reproduction in MDCK cell culture relative to control, average values ([1]; 6.25 mcg/mL, simultaneously with infection): 6.0% | Percent (%) reduction of influenza virus reproduction in MDCK cell culture relative to control ([1]; 12.5 mcg/mL, 2 h prior to infection, 1st value of cell): 47.0% | Percent (%) reduction of influenza virus reproduction in MDCK cell culture relative to control ([1]; 12.5 mcg/mL, 2 h prior to infection, 2nd value of cell): 74.0% | Percent (%) reduction of influenza virus reproduction in MDCK cell culture relative to control ([1]; 12.5 mcg/mL, 2 h prior to infection, 3rd value of cell): 9.5% | Percent reduction of influenza virus reproduction in MDCK cell culture relative to control, average values ([1]; 12.5 mcg/mL, 2 h prior to infection): 44.0% | Percent (%) reduction of influenza virus reproduction in MDCK cell culture relative to control ([1]; 12.5 mcg/mL, simultaneously with infection, 1st value of cell): 39.0% | Percent (%) reduction of influenza virus reproduction in MDCK cell culture relative to control ([1]; 12.5 mcg/mL, simultaneously with infection, 2nd value of cell): 13.0% | Percent (%) reduction of influenza virus reproduction in MDCK cell culture relative to control ([1]; 12.5 mcg/mL, simultaneously with infection, 3rd value of cell): 0% | Percent reduction of influenza virus reproduction in MDCK cell culture relative to control, average values ([1]; 12.5 mcg/mL, simultaneously with infection): 26% | Percent (%) reduction of influenza virus reproduction in MDCK cell culture relative to control ([1]; 25.0 mcg/mL, 2 h prior to infection, 1st value of cell): 41.0% | Percent (%) reduction of influenza virus reproduction in MDCK cell culture relative to control ([1]; 25.0 mcg/mL, 2 h prior to infection, 2nd value of cell): 79.0% | Percent (%) reduction of influenza virus reproduction in MDCK cell culture relative to control ([1]; 25.0 mcg/mL, 2 h prior to infection, 3rd value of cell): 12% | Percent reduction of influenza virus reproduction in MDCK cell culture relative to control, average values ([1]; 25.0 mcg/mL, 2 h prior to infection): 44.0% | Percent (%) reduction of influenza virus reproduction in MDCK cell culture relative to control ([1]; 25.0 mcg/mL, simultaneously with infection, 1st value of cell): 40.0% | Percent (%) reduction of influenza virus reproduction in MDCK cell culture relative to control ([1]; 25.0 mcg/mL, simultaneously with infection, 2nd value of cell): 0% | Percent reduction of influenza virus reproduction in MDCK cell culture relative to control, average values ([1]; 25.0 mcg/mL, simultaneously with infection): 20.0% | Percent (%) reduction of influenza virus reproduction in MDCK cell culture relative to control ([1]; 50.0 mcg/mL, 2 h prior to infection, 1st value of cell): 28.0% | Percent (%) reduction of influenza virus reproduction in MDCK cell culture relative to control ([1]; 50.0 mcg/mL, 2 h prior to infection, 2nd value of cell): 72.0% | Percent (%) reduction of influenza virus reproduction in MDCK cell culture relative to control ([1]; 50.0 mcg/mL, 2 h prior to infection, 3rd value of cell): 31.0% | Percent reduction of influenza virus reproduction in MDCK cell culture relative to control, average values ([1]; 50.0 mcg/mL, 2 h prior to infection): 44.0% | Percent (%) reduction of influenza virus reproduction in MDCK cell culture relative to control ([1]; 50.0 mcg/mL, simultaneously with infection, 1st value of cell): 33.0% | Percent (%) reduction of influenza virus reproduction in MDCK cell culture relative to control ([1]; 50.0 mcg/mL, simultaneously with infection, 2nd value of cell): 10.0% | Percent reduction of influenza virus reproduction in MDCK cell culture relative to control, average values ([1]; 50.0 mcg/mL, simultaneously with infection): 22.0% | Percent (%) reduction of influenza virus reproduction in MDCK cell culture relative to control ([1]; 100.0 mcg/mL, 2 h prior to infection, 1st value of cell): 4.0% | Percent (%) reduction of influenza virus reproduction in MDCK cell culture relative to control ([1]; 100.0 mcg/mL, 2 h prior to infection, 2nd value of cell): 0% | Percent (%) reduction of influenza virus reproduction in MDCK cell culture relative to control ([1]; 100.0 mcg/mL, 2 h prior to infection, 3rd value of cell): 20.0% | Percent reduction of influenza virus reproduction in MDCK cell culture relative to control, average values ([1]; 100.0 mcg/mL, 2 h prior to infection): 8% | Percent (%) reduction of influenza virus reproduction in MDCK cell culture relative to control ([1]; 100.0 mcg/mL, simultaneously with infection, 1st value of cell): 29.0% | Percent (%) reduction of influenza virus reproduction in MDCK cell culture relative to control ([1]; 100.0 mcg/mL, simultaneously with infection, 2nd value of cell): 28.0% | Percent reduction of influenza virus reproduction in MDCK cell culture relative to control, average values ([1]; 100.0 mcg/mL, simultaneously with infection): 29.0% | reproduction inhibitory activity in the MDCK cell culture ([1]; different dilutions of the agent): high reproduction inhibitory activity | ALT in days, M ± m ([2]; 100 mg/kg): 71.9 ± 2.58 days | ILT, % ([2]; 100 mg/kg): 89.71% | ALT in days, M ± m ([2]; 100 mg/kg, listed as agent): 71.9 ± 2.58 days | average lifetime ([2]; 200 mg/kg): 73.4+0.92 days | percent increase in lifetime compared to the control ([2]; 200 mg/kg): 93.67% | ALT in days, M ± m ([2]; 250 mg/kg): 73.40 ± 0.92 days | ILT, % ([2]; 250 mg/kg): 93.67% | intoxication signatures ([2]; mouse, in vivo): No intoxication signatures were detected
